Results reported in patent publication US20230391745A1, “SMALL MOLECULE DEGRADERS OF THE BROMODOMAIN AND PHD FINGER TRANSCRIPTION FACTOR” (Regents of the University of Minnesota, priority 2022, published 2023).
Like-named read-outs stand apart in the source and are kept apart here.

Experiments:
CECR2 bromodomain = molecular target: T1, CECR2 bromodomain (Homo sapiens, UniProt Q9BXF3); test: AlphaScreen assay with CECR2 bromodomain and biotinylated histone H4 KAc5,8,12,16 peptide; type: binding
T1 construct: His; purchased Reaction Biology RD-11-210

BRD9 bromodomain = molecular target: T2, BRD9 bromodomain (Homo sapiens, UniProt Q9H8M2); test: AlphaScreen assay with BRD9 bromodomain and biotinylated histone H4 KAc5,8,12,16 peptide; type: binding
T2 construct: His; purchased Reaction Biology RD-11-214
T2 sequence (Q9H8M2 136-240 limits assumed): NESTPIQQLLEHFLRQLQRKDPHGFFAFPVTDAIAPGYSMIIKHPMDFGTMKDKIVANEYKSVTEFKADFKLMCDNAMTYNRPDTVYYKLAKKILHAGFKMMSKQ

[1] = molecular target: T3, GST-CECR2 and His-tagged CRBN-DDB1 (Homo sapiens, UniProt Q96SW2+Q9BXF3); test: In vitro AlphaScreen ternary complex assay, CECR2; type: binding; conditions: GST-CECR2, His-CRBN-DDB1, varying degrader concentrations
T3 construct: GST-tagged bromodomains (BPTF, BRD9, CECR2 and PCAF) and His-tagged CRBN; purchased Reactive Biology Corp RD-11-194
Procedure: (§1) General procedure for in vitro ternary complex assay. His-tagged CRBN-DDB1 protein was prepared following the procedure reported by Matyskiela et al. GST-BPTF was purchased from BPS Biosciences (cat #31134), while GST-BRD9, GST-CECR2, and GST-PCAF were purchased from Reactive Biology Corp (cat #RD-11-187, cat #RD-11-194, and cat #RD-11-259 respectively). All reagents were diluted in assay buffer comprising 25 mM HEPES, pH 7.4, 100 mM NaCl, 0.1% BSA, and 0.05% tween20. An ECHO 650 (Labcyte Inc.) acoustic dispenser was used to generate a 10-point dilution curve from DMSO stocks of the degraders directly into a 384-well OptiPlate (PerkinElmer, Cat. #6007290) giving a final DMSO concentration of 0.3%. AlphaScreen glutathione coated donor and nickel chelate acceptor beads were purchased from PerkinElmer (Cat. #6765300 and 6760141 respectively).
(§2) Briefly, to a 384-well OptiPlate containing 5× degrader in triplicate was added 5 μL of a 5× solution of His-CRBN-DDB1 and GST-tagged bromodomain and then incubated at rt for 1 h. After incubation, 10 μL nickel chelate acceptor (20 μL/mL final concentration) and 10 μL glutathione donor beads (20 μL/mL final concentration) were added. The plate was sealed and mixed on a MixMate (eppendorf) for 1 h at rt and then luminescence detection was collected on an Envision plate reader (PerkinElmer).
(§3) In vitro ternary complex formation via AlphaScreen. The stability of the ternary complex is critical for degradation by heterobifunctional molecules. A ternary complex formation in vitro using an AlphaScreen-based assay (FIG. 3A) was therefore studied. In this experiment, anti-GST donor beads and nickel acceptor beads were paired with GST-tagged bromodomains (BPTF, BRD9, CECR2 and PCAF) and His-tagged CRBN. The AlphaScreen signal was measured at varying degrader concentrations and the amplitude of the maximum point on the curve was used as an indicator of ternary complex stability.

BPTF bromodomain = molecular target: T4, BPTF bromodomain (Homo sapiens, UniProt Q12830); test: AlphaScreen assay with BPTF bromodomain and biotinylated histone H4 KAc5,8,12,16 peptide; type: binding; conditions: average of two technical replicates with N = 3 unless otherwise indicated, read-out: BPTF BD IC50
T4 construct: His9-tagged BPTF bromodomain was expressed and purified as described previously; His9; made in house
Procedure: General procedure for AlphaScreen assay. His9-tagged BPTF bromodomain was expressed and purified as described previously. […] The AlphaScreen assay procedures were adapted from the manufacturers protocol (PerkinElmer, USA). […] The biotinylated Histone H4 KAc5,8,12,16 peptide was purchased from EpiCypher (Cat. #12-0034), with the sequence:
Ac-SGRGK(Ac)GGK(Ac)GLGK(Ac)GGAK(Ac)RHRKVLR-Peg(Biot).
All reagents were diluted in the assay buffer (50 mM HEPES-Na^+ (ChemImpex), 100 mM NaCl (SigmaAldrich), 0.05% CHAPS (RPI), 0.1% BSA (SigmaAldrich), pH 7.4).
3-fold serial dilutions were prepared with varying concentrations of the compounds and a fixed protein concentration, keeping the final DMSO concentration at 0.25%. […] 5 μL of the biotinylated peptide solution was then added to the wells. 10 μL of pre-mixed nickel chelate acceptor beads and streptavidin donor beads were added to each well under low light conditions (<100 lux), to a final concentration of 20 μg/mL. The plate was sealed and incubated for 30 minutes in the dark. It was then read in AlphaScreen mode (excitation time=100 ms, integration time=300 ms, output: counts/s) using a Tecan Spark plate reader. Each compound was run in two technical replicates and the data was normalized against 0 μM inhibitor signal to obtain the % normalized AlphaScreen signal. IC50 values were calculated in GraphPad Prism 9 using a sigmoidal 4-parameter logistic (4PL) curve fit.
To validate our chosen exit vectors, an AlphaScreen assay was used to measure binding affinity of our degraders with the BPTF bromodomain.

[2] = molecular target: T5, GST-BRD9 and His-tagged CRBN-DDB1 (Homo sapiens, UniProt Q96SW2+Q9H8M2); test: In vitro AlphaScreen ternary complex assay, BRD9; type: binding; conditions: GST-BRD9, His-CRBN-DDB1, varying degrader concentrations
T5 construct: GST-tagged bromodomains (BPTF, BRD9, CECR2 and PCAF) and His-tagged CRBN; purchased Reactive Biology Corp RD-11-187
Procedure: as §1, with “AlphaScreen glutathione coated donor and nickel chelate acceptor beads were purchased from PerkinElmer (Cat. #6765300 and 6760141 respectively).” left out
as §2, with “After incubation, 10 μL nickel chelate acceptor (20 μL/mL final concentration) and 10 μL glutathione donor beads (20 μL/mL final concentration) were added.” left out
In vitro ternary complex formation via AlphaScreen. […] The AlphaScreen signal was measured at varying degrader concentrations and the amplitude of the maximum point on the curve was used as an indicator of ternary complex stability.

[3] = molecular target: T6, GST-PCAF and His-tagged CRBN-DDB1 (Homo sapiens, UniProt Q92831+Q96SW2); test: In vitro AlphaScreen ternary complex assay, PCAF; type: binding; conditions: His-CRBN-DDB1, varying degrader concentrations
T6 construct: GST-tagged bromodomains (BPTF, BRD9, CECR2 and PCAF) and His-tagged CRBN; purchased Reactive Biology Corp RD-11-259
Procedure: as §1, §2, §3

[4] = molecular target: T7, Nluc-BPTF-BD fusion construct (Homo sapiens, UniProt Q12830+Q96SW2); test: In-cell NanoBRET CRBN ternary complex assay with Nluc-BPTF-BD; type: cell-based; conditions: for BRET ratio, fold increase over DMSO (in-cell ternary complex formation): 1 μM degrader, C-terminal Nluc-BPTF-BD fusion, HEK293T cells; for Ternary complex formation with C-terminal Nluc/BPTF-BD fusion construct / Ternary complex formation with N-terminal Nluc/BPTF-BD fusion construct: 1 μM for 2 h, HEK293T cells pre-treated with MG-132
T7 construct: form ternary complexes with nanoluciferase-fused BPTF bromodomain and full-length BRD9 constructs; expressed in transfected cells; host or cells: HEK293T
Procedure: In-cell NanoBRET assay. NanoBRET experiments were carried out using the NanoBRET CRBN Ternary Complex Starter Kit (Cat #ND2720) according to the manufacturer's protocol (Promega NanoBRET™ CRBN Ternary Complex Assay TM615).^38 All assays were run in 384-well format. HEK293T cells were transfected to a 1:100 donor:acceptor (Nluc:Halotag vectors) ratio for both BPTF-BD and BRD9-FL vectors (see supporting information for the design of plasmids). Cells were re-plated, treated with the HaloTag 618 Ligand and treated with compounds as described in the manufacturer's procedure.
Cell culture. HEK293T cells were grown in a humidified 5% CO2 environment at 37° C. Cells were cultured in DMEM media (high-glucose, Gibco Cat. #11965-092) supplemented with 10% fetal-bovine serum (Cellgro Cat. #QB-110-001-101), Penicillin-Streptomycin (50 U/mL penicillin, 50 μg/mL streptomycin, Cellgro Cat. #15140-122). The cells were passaged to a 1:20 dilution by decanting suspended cells and dissociating adherent cells from cell culture flasks in 0.25% trypsin/EDTA (Gibco, Cat. #25200056) after 1 min incubation.
In-cell ternary complex formation and degradation of BPTF-BD via NanoBRET. After establishing in vitro ternary complex formation, a NanoBRET ternary complex assay was optimized to rank-order degraders in cells (FIG. 4A). This assay also serves as an indirect indicator of cellular permeability, which is often a major challenge for heterobifunctional degraders. Both N- and C-terminal fusions of Nanoluciferase (Nluc) and BPTF-BD with 11-amino acid linkers were designed. The vectors were transfected into HEK293T cells and compounds 4 and 5 were dosed at 1 μM for 2 h in cells pre-treated with the proteosome inhibitor MG-132. […] The C-terminal Nluc-BPTF-BD fusion construct was therefore used for subsequent experiments. Degraders were tested for ternary complex formation at 1 μM (FIG. 4B).

[5] = molecular target: T8, Nluc-BRD9-FL fusion construct (Homo sapiens, UniProt Q96SW2+Q9H8M2); test: Degradation of Nluc-BRD9-FL construct by total donor luminescence; conditions: similar conditions as BPTF study (1 μM, 6 h), HEK293T cells
Text: (§4) In-cell ternary complex formation and degradation of full-length BRD9 via NanoBRET. […] Degradation of the Nluc-BRD9-FL construct was monitored under similar conditions as our BPTF study.

[6] = molecular target: T8, Nluc-BRD9-FL fusion construct; test: In-cell NanoBRET CRBN ternary complex assay with full-length BRD9; conditions: HEK293T cells
Text: as §4

[7] = AlphaScreen, average of two technical replicates with N = 2 unless otherwise indicated, read-out: CECR2 BD IC50
[8] = AlphaScreen, average of two technical replicates with N = 2 unless otherwise indicated, read-out: BRD9 BD IC50

T3 sequence (Q9BXF3 434-538 limits assumed): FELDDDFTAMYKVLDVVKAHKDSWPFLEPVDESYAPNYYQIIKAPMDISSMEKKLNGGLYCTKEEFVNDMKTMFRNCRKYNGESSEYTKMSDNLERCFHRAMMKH
T3 sequence (Q96SW2 40-442 limits assumed): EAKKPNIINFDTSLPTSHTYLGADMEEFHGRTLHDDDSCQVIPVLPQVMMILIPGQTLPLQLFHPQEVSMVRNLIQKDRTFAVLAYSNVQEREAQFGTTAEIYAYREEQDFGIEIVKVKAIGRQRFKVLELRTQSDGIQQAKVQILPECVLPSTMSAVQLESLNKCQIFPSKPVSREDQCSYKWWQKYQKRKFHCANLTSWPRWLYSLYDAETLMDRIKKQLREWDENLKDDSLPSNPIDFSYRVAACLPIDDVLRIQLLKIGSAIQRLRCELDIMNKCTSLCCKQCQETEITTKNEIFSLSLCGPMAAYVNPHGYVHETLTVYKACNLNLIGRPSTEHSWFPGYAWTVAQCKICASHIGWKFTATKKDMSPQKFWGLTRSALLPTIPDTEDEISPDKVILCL
T3 sequence (Q16531 whole entry partner): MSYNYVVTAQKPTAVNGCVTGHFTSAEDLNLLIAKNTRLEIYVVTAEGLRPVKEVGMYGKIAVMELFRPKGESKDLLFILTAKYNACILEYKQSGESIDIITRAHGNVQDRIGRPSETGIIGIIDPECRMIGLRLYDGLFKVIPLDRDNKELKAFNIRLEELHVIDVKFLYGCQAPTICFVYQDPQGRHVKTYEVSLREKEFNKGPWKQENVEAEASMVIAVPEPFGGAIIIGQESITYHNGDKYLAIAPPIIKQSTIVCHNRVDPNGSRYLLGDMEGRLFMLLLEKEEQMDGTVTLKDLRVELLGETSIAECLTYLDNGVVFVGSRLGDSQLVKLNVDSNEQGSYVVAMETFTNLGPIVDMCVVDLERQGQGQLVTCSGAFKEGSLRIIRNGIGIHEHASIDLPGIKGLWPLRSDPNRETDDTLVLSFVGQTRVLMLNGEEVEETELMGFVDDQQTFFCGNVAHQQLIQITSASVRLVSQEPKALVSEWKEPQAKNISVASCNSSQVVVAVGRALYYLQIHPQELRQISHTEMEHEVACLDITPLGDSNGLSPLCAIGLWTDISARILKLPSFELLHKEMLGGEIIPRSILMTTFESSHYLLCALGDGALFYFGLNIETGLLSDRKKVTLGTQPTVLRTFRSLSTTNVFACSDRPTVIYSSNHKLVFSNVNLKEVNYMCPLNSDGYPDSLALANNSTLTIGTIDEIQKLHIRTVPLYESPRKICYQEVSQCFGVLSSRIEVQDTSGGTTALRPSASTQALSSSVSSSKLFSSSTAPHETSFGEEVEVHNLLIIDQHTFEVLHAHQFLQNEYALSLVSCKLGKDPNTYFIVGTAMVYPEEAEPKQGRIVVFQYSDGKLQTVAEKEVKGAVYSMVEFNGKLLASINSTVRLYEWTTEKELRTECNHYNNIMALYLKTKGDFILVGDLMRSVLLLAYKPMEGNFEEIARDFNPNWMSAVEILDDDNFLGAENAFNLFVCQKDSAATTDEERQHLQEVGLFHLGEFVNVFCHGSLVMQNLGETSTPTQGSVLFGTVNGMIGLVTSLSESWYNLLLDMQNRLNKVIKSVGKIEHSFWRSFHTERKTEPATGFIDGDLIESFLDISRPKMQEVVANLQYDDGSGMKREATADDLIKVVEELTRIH
T1 sequence (Q9BXF3 434-538 limits assumed): as the sequence (Q9BXF3 434-538 limits assumed) above
T8 sequence (Q9H8M2 whole entry, the tested form may be a part): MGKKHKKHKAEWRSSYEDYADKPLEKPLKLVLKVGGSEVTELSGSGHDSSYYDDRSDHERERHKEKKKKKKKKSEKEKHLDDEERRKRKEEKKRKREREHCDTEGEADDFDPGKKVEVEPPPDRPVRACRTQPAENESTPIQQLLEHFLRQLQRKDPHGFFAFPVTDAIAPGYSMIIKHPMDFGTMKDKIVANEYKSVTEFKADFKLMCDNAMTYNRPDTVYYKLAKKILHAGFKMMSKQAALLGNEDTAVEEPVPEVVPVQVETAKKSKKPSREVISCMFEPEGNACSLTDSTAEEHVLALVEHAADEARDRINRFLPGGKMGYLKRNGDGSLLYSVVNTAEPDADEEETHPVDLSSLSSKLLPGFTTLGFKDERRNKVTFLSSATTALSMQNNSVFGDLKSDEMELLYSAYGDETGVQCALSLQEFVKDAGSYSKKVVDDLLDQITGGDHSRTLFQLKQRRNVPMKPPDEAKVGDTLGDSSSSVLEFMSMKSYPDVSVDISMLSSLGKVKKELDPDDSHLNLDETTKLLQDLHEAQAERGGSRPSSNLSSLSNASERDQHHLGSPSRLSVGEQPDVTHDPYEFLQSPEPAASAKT
T8 sequence (Q96SW2 whole entry, the tested form may be a part): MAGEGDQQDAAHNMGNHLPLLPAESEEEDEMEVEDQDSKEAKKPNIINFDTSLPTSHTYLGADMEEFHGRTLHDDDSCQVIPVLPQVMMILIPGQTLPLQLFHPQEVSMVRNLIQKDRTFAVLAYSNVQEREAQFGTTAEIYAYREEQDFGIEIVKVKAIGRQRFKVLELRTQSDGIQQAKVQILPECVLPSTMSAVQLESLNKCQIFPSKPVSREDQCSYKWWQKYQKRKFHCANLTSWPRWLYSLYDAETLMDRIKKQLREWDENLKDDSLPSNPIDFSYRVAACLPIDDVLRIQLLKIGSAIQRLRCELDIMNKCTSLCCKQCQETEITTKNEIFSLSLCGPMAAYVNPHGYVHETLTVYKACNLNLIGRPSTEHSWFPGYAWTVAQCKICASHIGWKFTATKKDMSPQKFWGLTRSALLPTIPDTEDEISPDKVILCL
T8 sequence (Q16531 whole entry partner, the tested form may be a part): as the sequence (Q16531 whole entry partner) above
T7 sequence (Q16531 whole entry, the tested form may be a part): as the sequence (Q16531 whole entry partner) above
T7 sequence (Q96SW2 whole entry, the tested form may be a part): as the sequence (Q96SW2 whole entry, the tested form may be a part) above
T6 sequence (Q92831 723-827 limits assumed): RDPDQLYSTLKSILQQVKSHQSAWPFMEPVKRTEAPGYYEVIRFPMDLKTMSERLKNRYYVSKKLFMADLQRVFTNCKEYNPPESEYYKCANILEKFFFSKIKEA
T6 sequence (Q96SW2 40-442 limits assumed): as the sequence (Q96SW2 40-442 limits assumed) above
T6 sequence (Q16531 whole entry partner): as the sequence (Q16531 whole entry partner) above
T5 sequence (Q96SW2 40-442 limits assumed, one chain of several): as the sequence (Q96SW2 40-442 limits assumed) above
T5 sequence (Q16531 whole entry partner, one chain of several): as the sequence (Q16531 whole entry partner) above

| SMILES | IC50 (CECR2 bromodomain) [nM] | IC50 (BRD9 bromodomain) [nM] | IC50 (CECR2 bromodomain; [7]) [nM] | IC50 (BRD9 bromodomain; [8]) [nM] | Ternary complex formation with CECR2 (AlphaScreen signal amplitude) [1] | IC50 (BPTF bromodomain) [nM] | Ternary complex formation with BRD9 (AlphaScreen signal amplitude) [2] | Ternary complex formation with PCAF (AlphaScreen signal amplitude) [3] | BRET ratio, fold increase over DMSO (in-cell ternary complex formation) [4] [fold] | Degradation of the Nluc-BRD9-FL construct [5] | BRET ratio, fold over DMSO control (in-cell ternary complex formation) [6] [fold] | Ternary complex formation with C-terminal Nluc/BPTF-BD fusion construct [4] | Ternary complex formation with N-terminal Nluc/BPTF-BD fusion construct [4] |
| --- | --- | --- | --- | --- | --- | --- | --- | --- | --- | --- | --- | --- | --- |
| Cn1ncc(Nc2ccc3c(c2)CCNC3)c(Cl)c1=O [Compound 1] | 1670 | 556 |  |  |  |  |  |  |  |  |  |  |  |
| Cn1ncc(Nc2ccc3c(c2)CNCC3)c(Cl)c1=O [Compound 2] |  |  | 1300 | 300 |  |  |  |  |  |  |  |  |  |
| Cn1ncc(Nc2ccc3c(c2)CCN(CCCCCCNC(=O)COc2cccc4c2C(=O)N(C2CCC(=O)NC2=O)C4=O)C3)c(Cl)c1=O (stereo not drawn) [Compound 3] |  |  | 53 | 21 | drop in signal | 24 ± 9 | drop in signal | drop in signal | 3.5 |  |  |  |  |
| Cn1ncc(Nc2ccc3c(c2)CN(CCCCCCNC(=O)COc2cccc4c2C(=O)N(C2CCC(=O)NC2=O)C4=O)CC3)c(Cl)c1=O (stereo not drawn) [Compound 4, N-(6-(7-((5-chloro-1-methyl-6-oxo-1,6-dihydropyridazin-4-yl)amino)-3,4-dihydroisoquinolin-2(1H)-yl)hexyl)-2-((2-(2,6-dioxopiperidin-3-yl)-1,3-dioxoisoindolin-4-yl)oxy)acetamide] |  |  | 485 | 98 | promiscuous | 158 ± 55 | promiscuous | promiscuous | 3.2 | caused degradation of full-length BRD9, comparable to the dBRD9 control | ~2 | showed ternary complex formation | did not |
| Cn1ncc(Nc2ccc3c(c2)CCN(CCOCCOCCNC(=O)COc2cccc4c2C(=O)N(C2CCC(=O)NC2=O)C4=O)C3)c(Cl)c1=O (stereo not drawn) [Compound 5, N-(2-(2-(2-(6-((5-chloro-1-methyl-6-oxo-1,6-dihydropyridazin-4-yl)amino)-3,4-dihydroisoquinolin-2(1H)-yl)ethoxy)ethoxy)ethyl)-2-((2-(2,6-dioxopiperidin-3-yl)-1,3-dioxoisoindolin-4-yl)oxy)acetamide] |  |  | 225 | 63 | less stable ternary complexes | 70 ± 23 |  | less stable ternary complexes | 2.3 | caused degradation of full-length BRD9, comparable to the dBRD9 control |  | showed ternary complex formation | did not |
| Cn1ncc(Nc2ccc3c(c2)CN(CCOCCOCCNC(=O)COc2cccc4c2C(=O)N(C2CCC(=O)NC2=O)C4=O)CC3)c(Cl)c1=O (stereo not drawn) [Compound 6, N-(2-(2-(2-(7-((5-chloro-1-methyl-6-oxo-1,6-dihydropyridazin-4-yl)amino)-3,4-dihydroisoquinolin-2(1H)-yl)ethoxy)ethoxy)ethyl)-2-((2-(2,6-dioxopiperidin-3-yl)-1,3-dioxoisoindolin-4-yl)oxy)acetamide] |  |  | 1460 | 18 | less stable ternary complexes | 121 ± 38 |  | less stable ternary complexes | 1.6 |  |  |  |  |
| CN(C)CCCOc1ccc(-c2cc(NCCCn3cccn3)nc(S(C)(=O)=O)n2)cc1 [Compound 7, TP-238, reference compound] |  |  | 33 |  |  | 430 |  |  |  |  |  |  |  |
